Results on one cell line are retold here after the supplement of paper PMC10307832.

Common to all, as to test: relative viability (nuclei count vs DMSO), 5 days (fraction); higher = more cells survive
Compound in the experiment “Linsitinib + Trametinib”: C[C@]1(O)C[C@@H](c2nc(-c3ccc4ccc(-c5ccccc5)nc4c3)c3c(N)nccn32)C1 [Linsitinib] + CC(=O)Nc1cccc(-n2c(=O)n(C3CC3)c(=O)c3c(Nc4ccc(I)cc4F)n(C)c(=O)c(C)c32)c1 [Trametinib] (partner 0.02 µM)
An outline of the steps:
(§1)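 Lung cancer cell lines were seeded in 1536-well plates and dosed by pin tool the next day, with either a single drug or a fixed anchor-drug dose combined with five library-drug doses (not always all listed) spaced in √10 steps. Five days later, one step fixed the cells and stained their nuclei (final 0.05% Triton X-100, 1% formaldehyde, 1 ug/ml Hoechst), and nuclei were counted on 4× images. Relative viability is the nuclei count in treated wells divided by the count in vehicle wells, and each value is the median of duplicate plates.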

Compound in the experiment “Linsitinib + Lapatinib”: C[C@]1(O)C[C@@H](c2nc(-c3ccc4ccc(-c5ccccc5)nc4c3)c3c(N)nccn32)C1 [Linsitinib] + CS(=O)(=O)CCNCc1ccc(-c2ccc3ncnc(Nc4ccc(OCc5cccc(F)c5)c(Cl)c4)c3c2)o1 [Lapatinib] (partner 2 µM)
An outline of the steps: as §1

Compound in the experiment “Linsitinib + Phenformin”: C[C@]1(O)C[C@@H](c2nc(-c3ccc4ccc(-c5ccccc5)nc4c3)c3c(N)nccn32)C1 [Linsitinib] + N=C(N)NC(=N)NCCc1ccccc1 [Phenformin] (partner 250 µM)
An outline of the steps:
as §1

Compound in the experiment “Ispinesib + Luminespib”: Cc1ccc(C(=O)N(CCCN)[C@@H](c2nc3cc(Cl)ccc3c(=O)n2Cc2ccccc2)C(C)C)cc1 [Ispinesib] + CCNC(=O)c1noc(-c2cc(C(C)C)c(O)cc2O)c1-c1ccc(CN2CCOCC2)cc1 [Luminespib] (partner 0.01 µM)
An outline of the steps: as §1

With UMC-11, the relative viability in the experiment with Linsitinib + Trametinib (first compound 0.01 µM) was determined as 0.72; in the experiment with Linsitinib + Trametinib (first compound 0.03162 µM) it was 0.76; with Linsitinib + Trametinib (first compound 0.1 µM), 0.7; with Linsitinib + Trametinib (first compound 0.3162 µM), 0.211; with Linsitinib + Trametinib (first compound 1 µM), 0.471; in the experiment with Linsitinib + Lapatinib (first compound 0.01 µM), 0.889. In addition, the relative viability with Linsitinib + Lapatinib (first compound 0.03162 µM) worked out at 0.871; with Linsitinib + Lapatinib (first compound 0.1 µM), 1.08; in the experiment with Linsitinib + Lapatinib (first compound 0.3162 µM), 0.303; with Linsitinib + Lapatinib (first compound 1 µM), 0.843; in the experiment with Linsitinib + Phenformin (first compound 0.01 µM), 0.332; with Linsitinib + Phenformin (first compound 0.03162 µM) it was 0.29. Further, the relative viability with Linsitinib + Phenformin (first compound 0.1 µM) came to 0.343; in the experiment with Linsitinib + Phenformin (first compound 1 µM), 0.321; with Ispinesib + Luminespib (first compound 0.001 µM) it was 0.919; with Ispinesib + Luminespib (first compound 0.003162 µM) it was 1.02; in the experiment with Ispinesib + Luminespib (first compound 0.01 µM), 1.05; in the experiment with Ispinesib + Luminespib (first compound 0.03162 µM) it was 0.451. Moreover, the relative viability in the experiment with Ispinesib + Luminespib (first compound 0.1 µM) turned out to be 0.323.
